Experimental data reported in patent US11111251B2, “Positive allosteric modulators of the muscarinic acetylcholine receptor M1” (Vanderbilt University, priority 2016, dated 2021).

Target: T1, human mAChR M1 (Homo sapiens, UniProt P11229)
T1 sequence (P11229 1-460): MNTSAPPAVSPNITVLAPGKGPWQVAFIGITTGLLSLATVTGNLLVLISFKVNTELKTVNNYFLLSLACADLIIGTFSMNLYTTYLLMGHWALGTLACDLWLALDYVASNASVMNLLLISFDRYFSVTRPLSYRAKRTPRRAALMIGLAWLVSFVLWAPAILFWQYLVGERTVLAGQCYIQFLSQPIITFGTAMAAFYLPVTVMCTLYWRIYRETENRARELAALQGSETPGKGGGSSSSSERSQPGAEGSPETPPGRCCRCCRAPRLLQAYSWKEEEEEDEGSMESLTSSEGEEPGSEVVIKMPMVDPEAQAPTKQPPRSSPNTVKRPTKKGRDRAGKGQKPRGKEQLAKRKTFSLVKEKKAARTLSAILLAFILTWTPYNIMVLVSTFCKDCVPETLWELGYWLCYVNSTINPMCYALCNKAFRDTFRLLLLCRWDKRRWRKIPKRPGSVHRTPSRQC
Experiment: mAChR M1 cell-based functional assay: calcium mobilization, positive allosteric modulator mode (increase in EC20 acetylcholine response)
Details: Table 2, human M1; for EC50: read-out: Human M1 EC50; for Emax: read-out: Human M1 Emax (%)
In short: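 PAM potency reflects the concentration-dependent increase in calcium response to an EC20 acetylcholine challenge, given 144 s into a 300 s read after compound addition at 4 s (EC80 follows at 230 s). Cells were hM1-expressing CHO-K1, loaded 50 min with Fluo-4 AM. Curves used 11 points at 1:3 dilutions and four-parameter logistic fitting.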

O=C(c1cc(Cc2ccc(-n3cccn3)cc2)c2sccc2n1)N1CCNCC1 [Compound 83, piperazin-1-yl-[7-[(4-pyrazol-1-ylphenyl)methyl]thieno[3,2-b]pyridin-5-yl]methanone]
EC50: > 10000 nM
Emax: 52.9%

O=C(c1cc(Cc2ccc(-n3cccn3)cc2)c2sccc2n1)N1CCN(CCO)CC1 [Compound 84, [4-(2-hydroxyethyl)piperazin-1-yl]-[7-[(4-pyrazol-1-ylphenyl)methyl]thieno[3,2-b]pyridin-5-yl]methanone]
EC50: > 10000 nM
Emax: 24.4%

Cc1ccc(C(F)c2cc(C(=O)N[C@@H]3CCCC[C@H]3O)nc3ccsc23)cn1 (stereo partly drawn) [Compound 85, 7-[fluoro-(6-methyl-3-pyridyl)methyl]-N-[(1R,2R)-2-hydroxycyclohexyl]thieno[3,2-b]pyridine-5-carboxamide]
EC50: 80.1 nM
Emax: 87.9%

CCOC(c1ccc(C)nc1)c1cc(C(=O)N[C@@H]2CCCC[C@H]2O)nc2ccsc12 (stereo partly drawn) [Compound 86, 7-[ethoxy-(6-methyl-3-pyridyl)methyl]-N-[(1R,2R)-2-hydroxycyclohexyl]thieno[3,2-b]pyridine-5-carboxamide]
EC50: 255 nM
Emax: 87.7%

O=C(N[C@H]1CC[C@@H]1O)c1cc(Cc2ccc(C(F)(F)F)nc2)c2sccc2n1 [Compound 87, N-[(1S,2S)-2-hydroxycyclobutyl]-7-[[6-(trifluoromethyl)-3-pyridyl]methyl]thieno[3,2-b]pyridine-5-carboxamide]
EC50: 3130 nM
Emax: 84.9%

O=C(N[C@@H]1CCC[C@H]1O)c1cc(Cc2ccc(C(F)(F)F)nc2)c2sccc2n1 [Compound 88, N-[(1R,2R)-2-hydroxycyclopentyl]-7-[[6-(trifluoromethyl)-3-pyridyl]methyl]thieno[3,2-b]pyridine-5-carboxamide]
EC50: 503 nM
Emax: 90.5%

O=C(NC1CCOCC1)c1cc(Cc2ccc(C(F)(F)F)nc2)c2sccc2n1 [Compound 89, N-tetrahydropyran-4-yl-7-[[6-(trifluoromethyl)-3-pyridyl]methyl]thieno[3,2-b]pyridine-5-carboxamide]
EC50: 1730 nM
Emax: 71.8%

O=C(N[C@@H]1CCCC[C@H]1O)c1cc(Cc2ccc(C(F)(F)F)nc2)c2sccc2n1 [Compound 90, N-[(1R,2R)-2-hydroxycyclohexyl]-7-[[6-(trifluoromethyl)-3-pyridyl]methyl]thieno[3,2-b]pyridine-5-carboxamide]
EC50: 154 nM
Emax: 90.7%

O=C(N[C@@H]1CCOC[C@H]1O)c1cc(Cc2ccc(C(F)(F)F)nc2)c2sccc2n1 [Compound 91, N-[(3S,4R)-3-hydroxytetrahydropyran-4-yl]-7-[[6-(trifluoromethyl)-3-pyridyl]methyl]thieno[3,2-b]pyridine-5-carboxamide]
EC50: 73.8 nM
Emax: 87.9%

O=C(N[C@@H]1COCC[C@H]1O)c1cc(Cc2ccc(C(F)(F)F)nc2)c2sccc2n1 [Compound 92, N-[(3R,4R)-4-hydroxytetrahydropyran-3-yl]-7-[[6-(trifluoromethyl)-3-pyridyl]methyl]thieno[3,2-b]pyridine-5-carboxamide]
EC50: > 10000 nM
Emax: 66.8%

CO[C@@H]1CCCC[C@H]1NC(=O)c1cc(Cc2ccc(C(F)(F)F)nc2)c2sccc2n1 [Compound 93, N-[(1R,2R)-2-methoxycyclohexyl]-7-[[6-(trifluoromethyl)-3-pyridyl]methyl]thieno[3,2-b]pyridine-5-carboxamide]
EC50: 6720 nM
Emax: 70.3%

O=C(N[C@@H]1CCCCC[C@H]1O)c1cc(Cc2ccc(C(F)(F)F)nc2)c2sccc2n1 [Compound 94]
EC50: 1250 nM
Emax: 84.6%

O=C(NC12CC3CC(CC(O)(C3)C1)C2)c1cc(Cc2ccc(C(F)(F)F)nc2)c2sccc2n1 [Compound 95, N-(3-hydroxy-1-adamantyl)-7-[[6-(trifluoromethyl)-3-pyridyl]methyl]thieno[3,2-b]pyridine-5-carboxamide]
EC50: 3130 nM
Emax: 34.2%

O=C(NC1C2CC3C[C@H]1CC(O)(C3)C2)c1cc(Cc2ccc(C(F)(F)F)nc2)c2sccc2n1 (stereo partly drawn) [Compound 96, N-[(1S)-5-hydroxy-2-adamantyl]-7-[[6-(trifluoromethyl)-3-pyridyl]methyl]thieno[3,2-b]pyridine-5-carboxamide]
EC50: > 10000 nM
Emax: 43.6%

O=C(NC1CCCNC1=O)c1cc(Cc2ccc(C(F)(F)F)nc2)c2sccc2n1 (stereo not drawn) [Compound 97, N-(2-oxo-3-piperidyl)-7-[[6-(trifluoromethyl)-3-pyridyl]methyl]thieno[3,2-b]pyridine-5-carboxamide]
EC50: > 10000 nM
Emax: 75.2%

O=C(NC1CCCCNC1=O)c1cc(Cc2ccc(C(F)(F)F)nc2)c2sccc2n1 (stereo not drawn) [Compound 98, N-(2-oxoazepan-3-yl)-7-[[6-(trifluoromethyl)-3-pyridyl]methyl]thieno[3,2-b]pyridine-5-carboxamide]
EC50: 6000 nM
Emax: 66.6%

Cc1ccc(Cc2cc(C(=O)N[C@H]3CC[C@@H]3O)nc3c(C)csc23)cn1 [Compound 99]
EC50: 7300 nM
Emax: 77.7%

Cc1ccc(Cc2cc(C(=O)N[C@@H]3CCC[C@H]3O)nc3c(C)csc23)cn1 [Compound 100]
EC50: 654 nM
Emax: 87.5%

Cc1ccc(Cc2cc(C(=O)NC3CCCCC3)nc3c(C)csc23)cn1 [Compound 101, N-cyclohexyl-3-methyl-7-[(6-methyl-3-pyridyl)methyl]thieno[3,2-b]pyridine-5-carboxamide]
EC50: 4960 nM
Emax: 75.7%

Cc1ccc(Cc2cc(C(=O)NC3CCOCC3)nc3c(C)csc23)cn1 [Compound 102, 3-methyl-7-[(6-methyl-3-pyridyl)methyl]-N-tetrahydropyran-4-yl-thieno[3,2-b]pyridine-5-carboxamide]
EC50: 2700 nM
Emax: 82.5%

Cc1ccc(Cc2cc(C(=O)N[C@@H]3CCCC[C@H]3O)nc3c(C)csc23)cn1 [Compound 103, N-[(1R,2R)-2-hydroxycyclohexyl]-3-methyl-7-[(6-methyl-3-pyridyl)methyl]thieno[3,2-b]pyridine-5-carboxamide]
EC50: 233 nM
Emax: 89.3%

Cc1ccc(Cc2cc(C(=O)N[C@@H]3CCOC[C@H]3O)nc3c(C)csc23)cn1 [Compound 104]
EC50: 164 nM
Emax: 86.8%

Cc1ccc(Cc2cc(C(=O)N[C@@H]3COCC[C@H]3O)nc3c(C)csc23)cn1 [Compound 105]
EC50: 825 nM
Emax: 87.7%

CO[C@@H]1CCCC[C@H]1NC(=O)c1cc(Cc2ccc(C)nc2)c2scc(C)c2n1 [Compound 106, N-[(1R,2R)-2-methoxycyclohexyl]-3-methyl-7-[(6-methyl-3-pyridyl)methyl]thieno[3,2-b]pyridine-5-carboxamide]
EC50: 2200 nM
Emax: 82.1%

Cc1ccc(Cc2cc(C(=O)N[C@@H]3CCCCC[C@H]3O)nc3c(C)csc23)cn1 [Compound 107]
EC50: 474 nM
Emax: 88.5%

Cc1ccc(Cc2cc(C(=O)NC34CC5CC(CC(O)(C5)C3)C4)nc3c(C)csc23)cn1 [Compound 108, N-(3-hydroxy-1-adamantyl)-3-methyl-7-[(6-methyl-3-pyridyl)methyl]thieno[3,2-b]pyridine-5-carboxamide]
EC50: 5270 nM
Emax: 48.4%

Cc1ccc(Cc2cc(C(=O)NC3C4CC5C[C@H]3CC(O)(C5)C4)nc3c(C)csc23)cn1 (stereo partly drawn) [Compound 109, N-[(1S)-5-hydroxy-2-adamantyl]-3-methyl-7-[(6-methyl-3-pyridyl)methyl]thieno[3,2-b]pyridine-5-carboxamide]
EC50: 3250 nM
Emax: 54.6%

Cc1ccc(Cc2cc(C(=O)NC3CCCNC3=O)nc3c(C)csc23)cn1 (stereo not drawn) [Compound 110, 3-methyl-7-[(6-methyl-3-pyridyl)methyl]-N-(2-oxo-3-piperidyl)thieno[3,2-b]pyridine-5-carboxamide]
EC50: 5060 nM
Emax: 71%

Cc1ccc(Cc2cc(C(=O)NC3CCCCNC3=O)nc3c(C)csc23)cn1 (stereo not drawn) [Compound 111, 3-methyl-7-[(6-methyl-3-pyridyl)methyl]-N-(2-oxoazepan-3-yl)thieno[3,2-b]pyridine-5-carboxamide]
EC50: 2400 nM
Emax: 72.5%

Cc1ccc(Cc2cc(C(=O)NC3CCN(C)CC3)nc3c(C)csc23)cn1 [Compound 112, 3-methyl-N-(1-methyl-4-piperidyl)-7-[(6-methyl-3-pyridyl)methyl]thieno[3,2-b]pyridine-5-carboxamide]
EC50: 5820 nM
Emax: 36.7%

Cc1csc2c(Cc3ccc(-n4cccn4)cc3)cc(C(=O)N[C@H]3CC[C@@H]3O)nc12 [Compound 113, N-[(1S,2S)-2-hydroxycyclobutyl]-3-methyl-7-[(4-pyrazol-1-ylphenyl)methyl]thieno[3,2-b]pyridine-5-carboxamide]
EC50: 985 nM
Emax: 83.8%

Cc1csc2c(Cc3ccc(-n4cccn4)cc3)cc(C(=O)N[C@@H]3CCC[C@H]3O)nc12 [Compound 114, N-[(1R,2R)-2-hydroxycyclopentyl]-3-methyl-7-[(4-pyrazol-1-ylphenyl)methyl]thieno[3,2-b]pyridine-5-carboxamide]
EC50: 562 nM
Emax: 84.5%

Cc1csc2c(Cc3ccc(-n4cccn4)cc3)cc(C(=O)NC3CCOCC3)nc12 [Compound 115, 3-methyl-7-[(4-pyrazol-1-ylphenyl)methyl]-N-tetrahydropyran-4-yl-thieno[3,2-b]pyridine-5-carboxamide]
EC50: 1050 nM
Emax: 86.2%
